The results in this text go back to paper PMC4125376 (Drug Target Insights, 2014).

Molecules are shown by their SMILES.

The target of the test is Babesia microti lactate dehydrogenase (BmLDH) (Babesia microti, UniProt I7J7V6). The experiment in a line: NADH formation at […] nm, […] NAD+ and […] lactate, non-linear regression. The class given is biochemical.
Babesia microti lactate dehydrogenase (BmLDH), sequence (I7J7V6 1-332): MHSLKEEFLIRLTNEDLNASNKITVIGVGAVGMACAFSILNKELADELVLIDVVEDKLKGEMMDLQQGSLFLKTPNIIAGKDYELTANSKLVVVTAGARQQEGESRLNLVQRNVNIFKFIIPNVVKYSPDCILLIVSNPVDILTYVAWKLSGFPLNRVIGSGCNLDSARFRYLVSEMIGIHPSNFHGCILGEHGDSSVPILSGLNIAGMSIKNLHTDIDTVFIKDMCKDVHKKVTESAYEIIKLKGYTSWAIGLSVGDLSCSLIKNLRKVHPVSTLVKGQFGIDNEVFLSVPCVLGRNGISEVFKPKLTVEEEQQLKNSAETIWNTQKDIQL

The term IC50 denotes the midpoint of a concentration-inhibition curve. A low value points to higher potency. `Cc1cc2c(C(C)C)c(O)c(O)c(C=O)c2c(O)c1-c1c(C)cc2c(C(C)C)c(O)c(O)c(C=O)c2c1O` [gossypol] returned a half-inhibitory concentration (IC50) of 345 ± 1.11 nM.
